One may read the inhibition as the relative decrease from the control value, in per cent. For orientation: IC50 means the concentration that inhibits the measured activity by half. A high value points to a need for much substance.

Structures are written as SMILES.

This passage reports inhibition and IC50 results from ChEMBL document CHEMBL1141910, “Combinatorial approaches towards the discovery of new tryptase inhibitors” (Bioorg Med Chem Lett, 2005).

For assay [1], the target named is T1, Tryptase beta-1 (Homo sapiens, UniProt Q15661). As to the kind of experiment: Percentage inhibition against tryptase at 10 uM.
Target sequence in this assay (Q15661 31-275 limits assumed): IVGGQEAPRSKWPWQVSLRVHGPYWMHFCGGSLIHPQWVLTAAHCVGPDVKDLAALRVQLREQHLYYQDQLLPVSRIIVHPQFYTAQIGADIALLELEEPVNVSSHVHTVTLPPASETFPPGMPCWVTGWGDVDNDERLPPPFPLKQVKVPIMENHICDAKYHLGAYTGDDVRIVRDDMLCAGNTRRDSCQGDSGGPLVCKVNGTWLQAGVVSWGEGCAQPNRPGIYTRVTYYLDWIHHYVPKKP
Assay [2] has as its target T1, Tryptase beta-1. As to the kind of experiment: Inhibitory concentration against tryptase.
Target sequence in this assay (Q15661 whole entry): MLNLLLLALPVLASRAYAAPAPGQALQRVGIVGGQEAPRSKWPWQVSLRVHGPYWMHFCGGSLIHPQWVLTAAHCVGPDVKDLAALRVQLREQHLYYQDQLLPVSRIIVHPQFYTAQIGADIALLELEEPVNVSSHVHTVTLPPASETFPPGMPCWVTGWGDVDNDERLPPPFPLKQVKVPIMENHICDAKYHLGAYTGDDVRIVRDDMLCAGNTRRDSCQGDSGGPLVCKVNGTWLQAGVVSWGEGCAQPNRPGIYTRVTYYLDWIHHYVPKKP

Regarding `N=C(N)Nc1ccc(C(=O)NCCCC[C@@H]2NC(=O)[C@H](CCCCNC(=O)CN3CCN=C3N)NC2=O)cc1`, on Tryptase beta-1 [1], the inhibition is 61.1%. Same read-out and setting: under `N=C(N)Nc1ccc(C(=O)O)cc1` stands 38.8%. `N=C(N)NCCCC(=O)NCCCC[C@@H]1NC(=O)[C@H](CCCCNC(=O)CCCNC(=N)N)NC1=O`: the IC50 at Tryptase beta-1 [2] turned out to be 4.7 µM. Further, the inhibition against Tryptase beta-1 [1] turned out to be 59.3%.

Take `N=C(N)NCCC[C@H](N)C(=O)O`: the inhibition against Tryptase beta-1 [1] stood at 3.71%. Same read-out and setting: under `N=C(N)NCCC[C@H](NC(=O)OCc1ccccc1)C(=O)NCCCC[C@@H]1NC(=O)[C@H](CC(=O)Nc2cccc(C(=N)N)c2)NC1=O` stands 59%; under `N=C(N)c1ccc(C(=O)O)cc1`, 2.9%. Consider `N=C(N)NCCCCC(=O)NCCCC[C@@H]1NC(=O)[C@H](CCCCNC(=O)[C@H](CCCNC(=N)N)NC(=O)OCc2ccccc2)NC1=O`, for which it took 5.7 µM to reach half-maximal inhibition on Tryptase beta-1 [2] (IC50). In addition, the inhibition against Tryptase beta-1 [1] was determined as 68%. Consider `N=C(N)NCCC[C@H](NC(=O)c1ccccc1)C(=O)NCCCC[C@@H]1NC(=O)[C@H](CC(=O)Nc2ccc(C(=N)N)cc2)NC1=O`, for which the inhibition on Tryptase beta-1 [1] amounted to 45%. On Tryptase beta-1 [2], `N=C(N)NCCC[C@H](NC(=O)c1ccccc1)C(=O)NCCCC[C@@H]1NC(=O)[C@H](CC(=O)Nc2cccc(C(=N)N)c2)NC1=O` returned an IC50 of 12.4 µM. In addition, the inhibition on Tryptase beta-1 [1] worked out at 70.6%. Take `N=C(N)NCCC(=O)NCCCC[C@@H]1NC(=O)[C@H](CC(=O)Nc2cccc(C(=N)N)c2)NC1=O`: at Tryptase beta-1 [2], the IC50 came out at 23.6 µM. Moreover, the inhibition against Tryptase beta-1 [1] was 76.5%.

Take `N=C(N)Nc1ccc(C(=O)NCCCC[C@@H]2NC(=O)[C@H](CC(=O)Nc3ccc(C(=N)N)cc3)NC2=O)cc1`: the inhibition at Tryptase beta-1 [1] was 73.9%. Still for that read-out and setting: under `N=C(N)NCCC[C@H](NC(=O)c1ccccc1)C(=O)NCCCC[C@@H]1NC(=O)[C@H](CCCCNC(=O)CCNC(=N)N)NC1=O` stands 31.2%; under `N=C(N)Nc1ccc(C(=O)NCCCC[C@@H]2NC(=O)[C@H](CC(=O)Nc3cccc(C(=N)N)c3)NC2=O)cc1`, 47.3%. On the same count and under the same terms, under `CN(CCC(=O)NCCCC[C@@H]1NC(=O)[C@H](CCCCNC(=O)CCCN=C(N)N)NC1=O)C(=N)N` stands 36.7%. For the compound `CN(CCC(=O)NCCCC[C@@H]1NC(=O)[C@H](CCCCNC(=O)CCN=C(N)N)NC1=O)C(=N)N`, the inhibition on Tryptase beta-1 [1] worked out at 51.7%. `CN(CCC(=O)NCCCC[C@@H]1NC(=O)[C@H](CC(=O)Nc2cccc(C(=N)N)c2)NC1=O)C(=N)N` returned an IC50 against Tryptase beta-1 [2] of 12.8 µM. Further, the inhibition against Tryptase beta-1 [1] was 62.6%.

Regarding `N=C(N)NNC(=O)C[C@@H]1NC(=O)[C@H](CCCCNC(=O)c2ccc(NC(=N)N)cc2)NC1=O`, at Tryptase beta-1 [1], the inhibition worked out at 42.5%. Same read-out and setting: under `N=C(N)NCCCC(NC(=O)OCC1c2ccccc2-c2ccccc21)C(=O)NCCCC[C@@H]1NC(=O)[C@H](CC(=O)Nc2ccc(C(=N)N)cc2)NC1=O` (some centres not stated) stands 64.5%. Compound `N=C(N)NCCC[C@H](NC(=O)OCc1ccccc1)C(=O)NCCCC[C@@H]1NC(=O)[C@H](CCCCNC(=O)[C@H](CCCN=C(N)N)NC(=O)OCc2ccccc2)NC1=O` showed an IC50 against Tryptase beta-1 [2] of 4.1 µM. For the same compound, the inhibition at Tryptase beta-1 [1] stood at 48.5%. The matching figures for `N=C(N)NCC(=O)NCCCC[C@@H]1NC(=O)[C@H](CC(=O)Nc2cccc(C(=N)N)c2)NC1=O`: 19.9 µM and 58.6%. `N=C(N)NCCCCC(=O)NCCCC[C@@H]1NC(=O)[C@H](CCCCNC(=O)CCCNC(=N)N)NC1=O`: the inhibition on Tryptase beta-1 [1] turned out to be 44.4%.

For `N=C(N)NCCCC(NC(=O)c1ccccc1)C(=O)O` (configuration not stated), on Tryptase beta-1 [1], the inhibition stood at 7.53%. On the same count and under the same terms, under `N=C(N)NCCCC(NC(=O)OCc1ccccc1)C(=O)O` (configuration not stated) stands 1.97%. The same measure, in the same setting: under `N=C(N)NCCCC(=O)O` stands 8.92%; under `N=C(N)NCCC[C@H](NC(=O)OCc1ccccc1)C(=O)NCCCC[C@@H]1NC(=O)[C@H](CC(=O)Nc2ccc(C(=N)N)cc2)NC1=O`, 41.6%. Compound `N=C(N)NCCCC(=O)NCCCC[C@@H]1NC(=O)[C@H](CCCCNC(=O)[C@H](CCCNC(=N)N)NC(=O)c2ccccc2)NC1=O` yielded an IC50 against Tryptase beta-1 [2] of 2.4 µM. Further, the inhibition against Tryptase beta-1 [1] stood at 80.5%. As for `N=C(N)NCCC(=O)O`, on Tryptase beta-1 [1], the inhibition is -6%. Still for that read-out and setting: next, `CN(CCC(=O)O)C(=N)N`: 2.55%. `N=C(N)NCCCC(=O)NCCCC[C@@H]1NC(=O)[C@H](CCCCNC(=O)[C@H](CCCNC(=N)N)NC(=O)OCc2ccccc2)NC1=O` registered a concentration for half-maximal inhibition (IC50) against Tryptase beta-1 [2] of 2.2 µM. Moreover, the inhibition at Tryptase beta-1 [1] came to 83%. For `N=C(N)NCC(=O)O`, the inhibition at Tryptase beta-1 [1] is -3%. The same measure, in the same setting: under `N=C(N)c1cccc(NC(=O)C[C@@H]2NC(=O)[C@H](CCCCNC(=O)CN3CCN=C3N)NC2=O)c1` stands 47.7%. As to `NC(N)=Nc1ccc(C(=O)NCCCC[C@@H]2NC(=O)[C@H](CCCCNC(=O)CN3CCN=C3N)NC2=O)cc1`, the midpoint of inhibition against Tryptase beta-1 [2], the IC50, lay at 4.4 µM.

For the compound `NC1=NCCN1CC(=O)O`, the inhibition against Tryptase beta-1 [1] amounted to 3.24%. At Tryptase beta-1 [2], `N=C(N)NCCCC(=O)NCCCC[C@@H]1NC(=O)[C@H](CC(=O)Nc2cccc(C(=N)N)c2)NC1=O` gave an IC50 of 21.3 µM. Further, at Tryptase beta-1 [1], the inhibition is 54.4%. The matching figures for `N=C(N)NCCCC(NC(=O)OCC1c2ccccc2-c2ccccc21)C(=O)NCCCC[C@@H]1NC(=O)[C@H](CC(=O)Nc2cccc(C(=N)N)c2)NC1=O` (some centres not stated): 9.09 µM and 62.6%. As for `N=C(N)NCCC[C@H](NC(=O)OCc1ccccc1)C(=O)NCCCC[C@@H]1NC(=O)[C@H](CCCCNC(=O)[C@H](CCCN=C(N)N)NC(=O)c2ccccc2)NC1=O`, the inhibition against Tryptase beta-1 [1] came to 43.3%. `CN(CCC(=O)NCCCC[C@@H]1NC(=O)[C@H](CCCCNC(=O)CCNC(=N)N)NC1=O)C(=N)N` registered an IC50 against Tryptase beta-1 [2] of 5.9 µM. For the compound `N=C(N)NCCCCC(=O)O`, the inhibition on Tryptase beta-1 [1] was determined as 0.23%. Regarding `N=C(N)NCCCCC(=O)NCCCC[C@@H]1NC(=O)[C@H](CCCCNC(=O)[C@H](CCCNC(=N)N)NC(=O)c2ccccc2)NC1=O`, the IC50 on Tryptase beta-1 [2] came out at 9.3 µM. Moreover, the inhibition at Tryptase beta-1 [1] came to 47.5%. `N=C(N)NCCCC(NC(=O)OCC1c2ccccc2-c2ccccc21)C(=O)NCCCC[C@@H]1NC(=O)[C@H](CC(=O)/N=C(\N)NNCCCc2ccccc2)NC1=O` (some centres not stated): the inhibition at Tryptase beta-1 [1] came to 49.3%.
